Assay results taken from patent US20070112077A1, “Des-C,D analogs of 1alpha,25-dihydroxy-19-norvitamin D3” (Wisconsin Alumni Research Foundation, priority 2005, published 2007).

Legend:
[1] = test system: Human promyelocytic leukemia (HL60) cells; experiment: HL-60 differentiation (nitro blue tetrazolium reduction); type: cell-based; settings: FIG. 2
Protocol: FIG. 2 is a graph comparing the percent HL-60 cell differentiation as a function of the concentration of Des-C,D with that of 1,25(OH)2D3.
The study drugs were dissolved in ethanol and the concentrations determined using UV spectrophotometry. Serial dilutions were prepared so that a range of drug concentrations was tested without changing the final concentration of ethanol (≦0.2%) present in the cell cultures.
Human promyelocytic leukemia (HL60) cells were grown in RPMI-1640 medium containing 10% fetal bovine serum. The cells were incubated at 37° C. in the presence of 5% CO2.
HL60 cells were plated at 1.2 x 10^5cells/mL. Eighteen hours after plating, cells in duplicate were treated with drug. Four days later, the cells were harvested and a nitro blue tetrazolium reduction assay was performed (Collins et al., 1979; J. Exp. Med. 149:969-974). The percentage of differentiated cells was determined by counting a total of 200 cells and recording the number that contain intracellular black-blue formazan deposits. Verification of differentiation to monocytic cells was determined by measuring phagocytic activity.

[2] = test system: Sprague-Dawley rats; experiment: Bone calcium mobilization (serum calcium); type: in vivo, rat; settings: even at the very high dose; four consecutive ip doses; FIG. 4
Description: FIG. 4 is a bar graph comparing the bone calcium mobilization activity of Des-C,D with that of 1,25(OH)2D3.
Male, weanling Sprague-Dawley rats were placed on Diet 11 (Suda et al. J. Nutr. 100:1049, 1970) (0.47% Ca) diet +vitamins AEK for one week followed by Diet 11 (0.02% Ca) +AEK for 3 weeks. The rats were then switched to a diet containing 0.47% Ca for one week followed by two weeks on a diet containing 0.02% Ca. Dose administration began during the last week on 0.02% calcium diet. Four consecutive ip doses were given approximately 24 hours apart. Twenty-four hours after the last dose, blood was collected from the severed neck and the concentration of serum calcium was determined as a measure of bone calcium mobilization. The first 10 cm of the intestine was also collected for intestinal calcium transport analysis using the everted gut sac method. Antagonism was tested by administering a combination of 1,25(OH)2D3 and the compound to the animal simultaneously.

[3] = biological target: T1, full-length recombinant rat vitamin D receptor (Rattus norvegicus, UniProt P13053); experiment: Vitamin D receptor binding, competition with [3H]-1,25-(OH)2-D3; settings: competition with [3H]-1,25-(OH)2-D3, FIG. 1
T1 construct: Full-length recombinant rat receptor was expressed in E. coli; histidine tag (C); made in house; host or cells: E. coli BL21 (DE3) Codon Plus RIL
T1 sequence (P13053 1-423): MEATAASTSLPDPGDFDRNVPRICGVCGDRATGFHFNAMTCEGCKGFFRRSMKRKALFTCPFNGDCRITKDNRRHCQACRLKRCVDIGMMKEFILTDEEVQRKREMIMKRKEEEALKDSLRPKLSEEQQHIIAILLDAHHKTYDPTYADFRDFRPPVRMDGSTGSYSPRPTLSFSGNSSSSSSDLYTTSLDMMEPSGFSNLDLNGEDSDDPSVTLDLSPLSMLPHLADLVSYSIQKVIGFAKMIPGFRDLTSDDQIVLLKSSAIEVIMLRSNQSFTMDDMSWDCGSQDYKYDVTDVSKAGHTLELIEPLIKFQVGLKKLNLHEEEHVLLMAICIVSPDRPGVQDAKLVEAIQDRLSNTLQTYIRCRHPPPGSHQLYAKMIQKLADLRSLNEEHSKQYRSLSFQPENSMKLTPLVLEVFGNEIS
Description: FIG. 1 is a graph comparing the relative activity of Des-C,D and 1,25(OH)2D3 to compete for binding with [^3H]-1 ,25-(OH)2-D3 to the full-length recombinant rat vitamin D receptor.
Full-length recombinant rat receptor was expressed in E. coli BL21 (DE3) Codon Plus RIL cells and purified to homogeneity using two different column chromatography systems. The first system was a nickel affinity resin that utilizes the C-terminal histidine tag on this protein. The protein that eluted from this resin was further purified using ion exchange chromatography (S-Sepharose Fast Flow). Aliquots of the purified protein were quick frozen in liquid nitrogen and stored at −80° C. until use. For use in binding assays, the protein was diluted in TEDK50 (50 mM Tris, 1.5 mM EDTA, pH 7.4, 5 mM DTT, 150 mM KCI) with 0.1% Chaps detergent. […]
Unlabeled ligands were dissolved in ethanol and the concentrations were determined using UV spectrophotometry (1,25(OH)2D3: molar extinction coefficient=18,200 and λmax=265 nm). […]
Radiolabeled and unlabeled ligands were added to 100 mcl of the diluted protein at a final ethanol concentration of ≦10%, mixed and incubated overnight on ice to reach binding equilibrium. […] Total binding was determined from the tubes containing only radiolabeled ligand.

[4] = test system: 24-hydroxylase (24Ohase) gene promoter in ROS 17/2.8 (bone) cells; experiment: In vitro transcription assay (24-hydroxylase gene promoter, luciferase reporter); type: cell-based; settings: ROS 17/2.8 cells, FIG. 3
Protocol: FIG. 3 is a graph comparing the in vitro transcription activity of Des-C, D with that of 1,25(OH)2D3.
Transcription activity was measured in ROS 17/2.8 (bone) cells that were stably transfected with a 24-hydroxylase (240hase) gene promoter upstream of a luciferase reporter gene (Arbour et al., 1998). Cells were given a range of doses. Sixteen hours after dosing the cells were harvested and luciferase activities were measured using a luminometer. RLU=relative luciferase units.

SMILES: C=C1[C@H](O)CC(=C/C=C/CCC[C@@H](C)CCCC(C)(C)O)C[C@H]1O [Des-C,D]
- activity in inducing differentiation of HL-60 cells compared with 1,25-(OH)2D3 [1]: does not show as much activity as 1,25-(OH)2D3
- bone calcium mobilizing activity [2]: no measureable bone calcium mobilizing activity
- binding to the vitamin D receptor compared with 1,25-(OH)2D3 [3]: does not bind to the vitamin D receptor as strongly as the native hormone 1,25-(OH)2D3
- activity in causing transcription compared with 1,25-(OH)2D3 [4]: does not show as much activity in causing transcription as 1,25-(OH)2D3
